This passage reports AC50 results from ChEMBL document CHEMBL5291721, “A preclinical secondary pharmacology resource illuminates target-adverse drug reaction associations of marketed drugs” (Nat Commun, 2023).

Among the targets are Adenosine receptor A2a (Homo sapiens, UniProt P29274); Vasopressin V2 receptor (Homo sapiens, UniProt P30518); Melanocortin receptor 4 (Homo sapiens, UniProt P32245); Motilin receptor (Homo sapiens, UniProt O43193).
Assay [1] has as its target T1, Alpha-1A adrenergic receptor (Homo sapiens, UniProt P35348).
T1 sequence (P35348 whole entry): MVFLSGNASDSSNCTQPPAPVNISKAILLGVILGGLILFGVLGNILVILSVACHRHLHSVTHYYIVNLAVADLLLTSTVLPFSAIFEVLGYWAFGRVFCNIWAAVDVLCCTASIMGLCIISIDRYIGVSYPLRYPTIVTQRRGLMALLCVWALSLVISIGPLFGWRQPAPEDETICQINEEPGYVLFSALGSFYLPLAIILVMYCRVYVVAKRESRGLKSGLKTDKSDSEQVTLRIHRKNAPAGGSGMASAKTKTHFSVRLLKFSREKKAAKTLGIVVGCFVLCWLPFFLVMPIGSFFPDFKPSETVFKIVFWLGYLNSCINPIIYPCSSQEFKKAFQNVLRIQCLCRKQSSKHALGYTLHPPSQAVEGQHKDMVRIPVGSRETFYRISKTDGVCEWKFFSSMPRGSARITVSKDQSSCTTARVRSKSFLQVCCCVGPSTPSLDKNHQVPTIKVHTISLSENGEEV

In assay [2] the target is T2, Alpha-2A adrenergic receptor (Homo sapiens, UniProt P08913).
T2 sequence (P08913 whole entry): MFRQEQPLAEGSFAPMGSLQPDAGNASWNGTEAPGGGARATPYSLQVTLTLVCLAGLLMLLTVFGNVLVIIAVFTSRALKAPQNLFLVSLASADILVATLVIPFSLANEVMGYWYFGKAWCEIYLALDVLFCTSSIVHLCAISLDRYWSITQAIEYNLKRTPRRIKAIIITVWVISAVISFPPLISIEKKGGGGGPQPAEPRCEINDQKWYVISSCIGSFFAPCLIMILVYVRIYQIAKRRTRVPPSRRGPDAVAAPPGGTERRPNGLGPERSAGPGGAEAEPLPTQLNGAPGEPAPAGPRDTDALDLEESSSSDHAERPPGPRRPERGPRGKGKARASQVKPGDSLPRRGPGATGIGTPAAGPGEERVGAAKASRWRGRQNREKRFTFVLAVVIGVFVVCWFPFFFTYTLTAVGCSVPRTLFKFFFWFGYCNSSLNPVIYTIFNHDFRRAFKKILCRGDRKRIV
The format is functional, cell-based.

The target of assay [3] is Beta-1 adrenergic receptor (Homo sapiens, UniProt P08588). The format is functional.
The target in assay [4] is Gamma-aminobutyric acid receptor subunit alpha-1 (Rattus norvegicus, UniProt P62813).
Assay [5] addresses Glutamate receptor ionotropic, NMDA 1 (Rattus norvegicus, UniProt P35439).
For assay [6], the target named is T3, 5-hydroxytryptamine receptor 1A (Homo sapiens, UniProt P08908).
T3 sequence (P08908 whole entry): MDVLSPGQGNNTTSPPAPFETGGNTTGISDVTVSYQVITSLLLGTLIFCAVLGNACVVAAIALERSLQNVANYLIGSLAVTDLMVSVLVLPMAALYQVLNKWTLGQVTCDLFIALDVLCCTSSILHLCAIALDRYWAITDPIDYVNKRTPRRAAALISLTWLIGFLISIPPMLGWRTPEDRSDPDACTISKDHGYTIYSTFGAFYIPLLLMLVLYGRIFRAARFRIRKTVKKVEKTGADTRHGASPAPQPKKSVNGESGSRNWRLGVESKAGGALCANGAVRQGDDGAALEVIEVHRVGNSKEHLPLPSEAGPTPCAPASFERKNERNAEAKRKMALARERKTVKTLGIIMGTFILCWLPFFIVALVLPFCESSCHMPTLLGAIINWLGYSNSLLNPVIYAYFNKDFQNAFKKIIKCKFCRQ
The format is functional, cell-based.

In assay [7] the target is Voltage-gated inwardly rectifying potassium channel KCNH2 (Homo sapiens, UniProt Q12809). The class given is functional. Particulars: read-out: AC50.
Assay [8] deals with T4, Neuropeptide Y receptor type 1 (Homo sapiens, UniProt P25929).
T4 sequence (P25929 whole entry): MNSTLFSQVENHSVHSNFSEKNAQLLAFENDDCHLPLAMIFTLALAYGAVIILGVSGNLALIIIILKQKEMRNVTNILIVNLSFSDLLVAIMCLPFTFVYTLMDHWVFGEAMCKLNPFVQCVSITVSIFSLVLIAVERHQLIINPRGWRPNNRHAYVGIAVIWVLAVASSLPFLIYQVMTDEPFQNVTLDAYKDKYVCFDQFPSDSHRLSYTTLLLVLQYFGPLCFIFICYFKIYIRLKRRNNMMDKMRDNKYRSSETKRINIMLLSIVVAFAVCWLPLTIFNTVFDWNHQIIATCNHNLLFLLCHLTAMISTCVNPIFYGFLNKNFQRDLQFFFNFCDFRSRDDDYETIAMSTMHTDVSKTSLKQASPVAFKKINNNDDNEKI

Assay [9] addresses Kappa-type opioid receptor (Homo sapiens, UniProt P41145).
Assay [10] addresses T5, Equilibrative nucleoside transporter 1 (Homo sapiens, UniProt Q99808).
T5 sequence (Q99808 whole entry): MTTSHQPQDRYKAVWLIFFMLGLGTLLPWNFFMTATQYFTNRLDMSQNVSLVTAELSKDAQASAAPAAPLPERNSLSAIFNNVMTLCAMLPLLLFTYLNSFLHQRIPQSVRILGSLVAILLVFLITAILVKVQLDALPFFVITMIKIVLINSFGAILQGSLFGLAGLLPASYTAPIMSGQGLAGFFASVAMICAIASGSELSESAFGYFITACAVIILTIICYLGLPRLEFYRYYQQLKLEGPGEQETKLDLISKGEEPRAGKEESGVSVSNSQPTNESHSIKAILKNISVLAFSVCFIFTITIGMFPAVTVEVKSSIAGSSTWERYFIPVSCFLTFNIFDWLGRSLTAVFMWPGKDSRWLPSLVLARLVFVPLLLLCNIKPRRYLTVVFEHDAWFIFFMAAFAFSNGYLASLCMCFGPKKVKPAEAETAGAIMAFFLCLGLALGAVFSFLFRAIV

Assay [11] deals with T1, Alpha-1A adrenergic receptor. The format is functional, cell-based.
The target of assay [12] is T6, Cannabinoid receptor 1 (Homo sapiens, UniProt P21554). The class given is functional, cell-based.
Assay [13] deals with T6, Cannabinoid receptor 1. The class given is functional, cell-based. The source holds these as a separate data set.
Further: assay procedure not described here.

Sequence of Motilin receptor (O43193 whole entry): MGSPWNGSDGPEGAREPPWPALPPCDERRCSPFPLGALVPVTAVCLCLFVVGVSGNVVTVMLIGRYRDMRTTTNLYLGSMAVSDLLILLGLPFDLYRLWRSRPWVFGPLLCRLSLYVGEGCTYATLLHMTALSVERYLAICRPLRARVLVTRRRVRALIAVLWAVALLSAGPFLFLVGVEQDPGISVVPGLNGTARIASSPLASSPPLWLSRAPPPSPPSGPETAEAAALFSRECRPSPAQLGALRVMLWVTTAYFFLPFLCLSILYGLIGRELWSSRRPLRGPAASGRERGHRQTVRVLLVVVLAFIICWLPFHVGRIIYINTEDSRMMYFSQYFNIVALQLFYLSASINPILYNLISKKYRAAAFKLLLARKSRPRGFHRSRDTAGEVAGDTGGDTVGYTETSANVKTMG
Sequence of Gamma-aminobutyric acid receptor subunit alpha-1 (P62813 whole entry): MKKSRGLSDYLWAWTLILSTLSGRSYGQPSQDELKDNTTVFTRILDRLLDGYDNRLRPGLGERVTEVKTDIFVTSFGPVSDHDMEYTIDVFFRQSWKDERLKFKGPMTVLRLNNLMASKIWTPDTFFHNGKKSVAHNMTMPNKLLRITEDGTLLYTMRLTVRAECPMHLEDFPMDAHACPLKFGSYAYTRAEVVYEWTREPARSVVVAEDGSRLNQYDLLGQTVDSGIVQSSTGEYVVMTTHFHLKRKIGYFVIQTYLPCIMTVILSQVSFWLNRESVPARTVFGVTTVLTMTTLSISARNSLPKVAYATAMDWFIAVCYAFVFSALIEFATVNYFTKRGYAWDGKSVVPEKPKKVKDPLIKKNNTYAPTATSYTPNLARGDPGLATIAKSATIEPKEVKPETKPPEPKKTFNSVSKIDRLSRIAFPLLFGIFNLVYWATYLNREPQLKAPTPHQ
Sequence of Vasopressin V2 receptor (P30518 whole entry): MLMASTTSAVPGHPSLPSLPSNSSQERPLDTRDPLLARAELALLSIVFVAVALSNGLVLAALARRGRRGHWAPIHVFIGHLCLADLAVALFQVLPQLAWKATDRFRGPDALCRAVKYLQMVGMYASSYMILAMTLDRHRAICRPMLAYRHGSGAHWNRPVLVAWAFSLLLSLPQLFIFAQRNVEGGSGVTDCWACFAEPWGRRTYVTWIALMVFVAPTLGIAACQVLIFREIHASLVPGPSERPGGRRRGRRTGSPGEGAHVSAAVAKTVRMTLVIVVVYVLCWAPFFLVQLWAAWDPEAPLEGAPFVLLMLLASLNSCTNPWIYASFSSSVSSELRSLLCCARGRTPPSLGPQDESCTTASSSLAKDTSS
Sequence of Beta-1 adrenergic receptor (P08588 whole entry): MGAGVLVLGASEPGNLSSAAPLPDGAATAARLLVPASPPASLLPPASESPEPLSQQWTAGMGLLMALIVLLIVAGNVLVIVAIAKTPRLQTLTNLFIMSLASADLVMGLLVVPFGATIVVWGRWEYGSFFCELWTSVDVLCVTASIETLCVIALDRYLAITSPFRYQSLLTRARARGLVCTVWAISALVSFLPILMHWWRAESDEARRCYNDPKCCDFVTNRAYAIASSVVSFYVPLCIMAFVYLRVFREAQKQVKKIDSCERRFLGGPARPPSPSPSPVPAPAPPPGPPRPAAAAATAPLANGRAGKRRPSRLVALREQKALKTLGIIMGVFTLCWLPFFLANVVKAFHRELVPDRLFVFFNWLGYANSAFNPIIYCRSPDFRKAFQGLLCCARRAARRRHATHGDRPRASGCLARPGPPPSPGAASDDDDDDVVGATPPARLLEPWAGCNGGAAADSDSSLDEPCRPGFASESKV
Sequence of Voltage-gated inwardly rectifying potassium channel KCNH2 (Q12809 whole entry): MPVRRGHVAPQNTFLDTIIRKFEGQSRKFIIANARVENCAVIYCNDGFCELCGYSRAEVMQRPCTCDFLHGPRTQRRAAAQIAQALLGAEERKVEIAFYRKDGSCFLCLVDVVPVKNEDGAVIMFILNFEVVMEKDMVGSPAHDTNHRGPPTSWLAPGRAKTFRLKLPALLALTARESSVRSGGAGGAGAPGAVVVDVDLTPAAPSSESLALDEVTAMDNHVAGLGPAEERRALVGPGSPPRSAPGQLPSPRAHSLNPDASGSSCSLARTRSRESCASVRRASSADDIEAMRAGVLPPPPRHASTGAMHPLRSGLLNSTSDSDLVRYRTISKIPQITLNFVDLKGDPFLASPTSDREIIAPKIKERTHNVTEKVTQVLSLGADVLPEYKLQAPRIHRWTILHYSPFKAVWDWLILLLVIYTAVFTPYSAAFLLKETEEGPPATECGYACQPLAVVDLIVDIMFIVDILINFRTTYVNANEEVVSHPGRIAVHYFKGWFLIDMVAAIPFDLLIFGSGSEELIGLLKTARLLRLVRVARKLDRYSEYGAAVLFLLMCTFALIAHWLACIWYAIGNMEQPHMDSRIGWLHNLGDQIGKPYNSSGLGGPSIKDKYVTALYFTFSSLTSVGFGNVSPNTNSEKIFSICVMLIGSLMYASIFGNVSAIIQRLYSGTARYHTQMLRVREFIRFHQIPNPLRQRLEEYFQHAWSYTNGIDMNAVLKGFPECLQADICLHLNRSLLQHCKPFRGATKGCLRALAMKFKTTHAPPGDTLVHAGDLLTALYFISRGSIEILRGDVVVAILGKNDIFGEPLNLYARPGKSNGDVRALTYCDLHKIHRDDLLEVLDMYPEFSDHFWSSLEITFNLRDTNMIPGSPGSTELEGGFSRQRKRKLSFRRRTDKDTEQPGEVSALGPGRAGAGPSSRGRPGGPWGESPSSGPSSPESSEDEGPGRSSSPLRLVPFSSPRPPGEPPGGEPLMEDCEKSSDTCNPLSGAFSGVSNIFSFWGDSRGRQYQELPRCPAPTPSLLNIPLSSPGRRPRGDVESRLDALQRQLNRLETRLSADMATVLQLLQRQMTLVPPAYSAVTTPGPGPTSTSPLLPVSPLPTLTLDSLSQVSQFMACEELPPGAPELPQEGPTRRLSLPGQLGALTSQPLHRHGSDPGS
Sequence of Melanocortin receptor 4 (P32245 whole entry): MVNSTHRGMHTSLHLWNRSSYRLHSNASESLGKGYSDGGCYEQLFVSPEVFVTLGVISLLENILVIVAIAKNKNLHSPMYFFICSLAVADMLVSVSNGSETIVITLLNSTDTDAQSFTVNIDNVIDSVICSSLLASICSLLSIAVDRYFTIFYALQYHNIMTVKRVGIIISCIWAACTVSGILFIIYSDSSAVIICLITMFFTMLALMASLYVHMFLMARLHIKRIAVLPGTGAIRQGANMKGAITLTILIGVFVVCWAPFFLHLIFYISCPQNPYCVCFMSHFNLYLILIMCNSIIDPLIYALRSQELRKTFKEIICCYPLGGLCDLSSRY
Sequence of Kappa-type opioid receptor (P41145 whole entry): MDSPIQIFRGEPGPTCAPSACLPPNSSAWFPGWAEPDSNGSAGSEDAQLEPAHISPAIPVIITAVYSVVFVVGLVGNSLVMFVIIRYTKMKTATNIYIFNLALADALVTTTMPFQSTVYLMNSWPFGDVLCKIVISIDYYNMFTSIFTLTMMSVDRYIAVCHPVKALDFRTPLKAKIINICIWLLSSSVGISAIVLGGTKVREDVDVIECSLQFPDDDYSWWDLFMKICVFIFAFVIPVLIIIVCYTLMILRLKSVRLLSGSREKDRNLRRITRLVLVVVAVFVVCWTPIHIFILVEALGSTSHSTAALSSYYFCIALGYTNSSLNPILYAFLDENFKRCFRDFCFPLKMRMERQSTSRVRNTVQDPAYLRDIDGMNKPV
Sequence of Adenosine receptor A2a (P29274 whole entry): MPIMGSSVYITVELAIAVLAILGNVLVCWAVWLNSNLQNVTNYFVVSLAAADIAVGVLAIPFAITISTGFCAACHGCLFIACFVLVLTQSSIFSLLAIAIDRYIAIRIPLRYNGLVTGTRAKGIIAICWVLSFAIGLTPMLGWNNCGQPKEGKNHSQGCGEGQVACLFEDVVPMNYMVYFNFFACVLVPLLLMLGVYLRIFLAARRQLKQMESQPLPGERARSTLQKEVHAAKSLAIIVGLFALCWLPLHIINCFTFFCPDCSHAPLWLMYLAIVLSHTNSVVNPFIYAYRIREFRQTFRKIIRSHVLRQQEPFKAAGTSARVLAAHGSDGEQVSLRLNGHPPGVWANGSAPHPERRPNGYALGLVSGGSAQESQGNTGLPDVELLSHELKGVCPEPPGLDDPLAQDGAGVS
T6 sequence (P21554 whole entry): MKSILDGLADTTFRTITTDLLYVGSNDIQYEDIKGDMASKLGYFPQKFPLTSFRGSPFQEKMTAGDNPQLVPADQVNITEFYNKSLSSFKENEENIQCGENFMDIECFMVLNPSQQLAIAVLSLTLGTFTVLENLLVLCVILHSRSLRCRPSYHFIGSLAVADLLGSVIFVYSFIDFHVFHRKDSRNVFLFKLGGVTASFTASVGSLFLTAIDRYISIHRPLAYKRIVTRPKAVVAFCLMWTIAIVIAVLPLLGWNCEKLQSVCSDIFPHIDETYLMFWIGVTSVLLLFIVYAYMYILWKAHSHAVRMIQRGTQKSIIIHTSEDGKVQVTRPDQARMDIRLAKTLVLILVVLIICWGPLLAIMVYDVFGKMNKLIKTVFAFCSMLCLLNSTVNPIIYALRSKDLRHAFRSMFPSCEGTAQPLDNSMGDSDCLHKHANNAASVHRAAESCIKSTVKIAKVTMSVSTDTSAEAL

With `OCC(O)COc1ccc(Cl)cc1` (stereo not given), the AC50 (on Adenosine receptor A2a; in [1]; in assay [2]; in assay [3]; at Vasopressin V2 receptor; in [4]) was more than 10 µM in each case. Besides, the AC50 (as a rule, the concentration at which the activity in the assay is half-maximal) in assay [5] is more than 10 µM; in [6] it was more than 10 µM; in assay [7] it was more than 30 µM; on Melanocortin receptor 4, more than 10 µM; at Motilin receptor, more than 10 µM; in [8], more than 10 µM. The AC50 in assay [9] and in assay [10] was more than 10 µM in each case.

Consider `CN(Cc1ccc(C(C)(C)C)cc1)Cc1cccc2ccccc12` [BUTENAFINE], for which the AC50 (at Adenosine receptor A2a; in [1]; in assay [2]; in assay [3]; at Vasopressin V2 receptor; in assay [4]) was more than 10 µM each time. The AC50 in [5] is more than 10 µM; in assay [6] it was more than 10 µM; in [7] it was 2.8 µM; on Melanocortin receptor 4, more than 10 µM; at Motilin receptor, more than 10 µM; in assay [8], more than 10 µM. Also, the concentration at half-maximal activity (AC50) in [9] and in [10] was more than 10 µM each time.

Turning to `CC(=O)OCC1=C(C(=O)O)N2C(=O)[C@@H](NC(=O)CSc3ccncc3)[C@H]2SC1` [CEPHAPIRIN], the half-maximal activity concentration (AC50) (at Adenosine receptor A2a; in assay [1]; in assay [2]; in assay [3]; on Vasopressin V2 receptor; in assay [4]) was more than 10 µM in each case. Further, the AC50 in [5] was more than 10 µM; in assay [6], more than 10 µM; in assay [7], more than 30 µM; on Melanocortin receptor 4 it was more than 10 µM; at Motilin receptor it was more than 10 µM; in assay [8] it was more than 10 µM. In addition, the AC50 in assay [9] and in [10] was more than 10 µM each time.

As for `Nc1nc(Cl)nc2c1ncn2[C@@H]1O[C@H](CO)[C@@H](O)[C@@H]1F` [CLOFARABINE], the AC50 was 22.1 µM on Adenosine receptor A2a; 29 µM in assay [1]; more than 10 µM in assay [2]; more than 30 µM in assay [3]; more than 30 µM at Vasopressin V2 receptor; more than 10 µM in [4]. The AC50 is more than 10 µM in assay [5]; more than 30 µM in [6]; more than 30 µM in [7]; more than 30 µM on Melanocortin receptor 4; more than 30 µM on Motilin receptor; more than 30 µM in assay [8]. Further, the AC50 in [9] is more than 10 µM; in assay [10], more than 30 µM.

On to `CC1CC(OC(=O)C(O)c2ccccc2)CC(C)(C)C1` (stereo not given) [CYCLANDELATE], for which the AC50 (on Adenosine receptor A2a; in assay [1]; in [2]; in [3]; at Vasopressin V2 receptor; in [4]) was more than 10 µM in each case. Besides, the AC50 was more than 10 µM in [5]; more than 10 µM in assay [6]; more than 30 µM in [7]; more than 10 µM on Melanocortin receptor 4; more than 10 µM on Motilin receptor; more than 10 µM in [8]. The values for the concentration at half-maximal activity (AC50) in assay [9] and in [10] were more than 10 µM and more than 30 µM, respectively.

Consider `CN(C)CCOC(=O)C(c1ccccc1)C1(O)CCCC1` (stereo not given) [CYCLOPENTOLATE], for which the AC50 is more than 10 µM at Adenosine receptor A2a; more than 30 µM in assay [1]; more than 10 µM in assay [2]; more than 10 µM in [3]; more than 10 µM at Vasopressin V2 receptor; more than 10 µM in assay [4]. Besides, the AC50 is more than 10 µM in assay [5]; more than 10 µM in assay [6]; more than 30 µM in assay [7]; more than 10 µM at Melanocortin receptor 4; more than 10 µM on Motilin receptor; more than 10 µM in [8]. The AC50 was more than 10 µM in assay [9] and more than 30 µM in [10].

Take `COC(=O)[C@H]1[C@H]2C[C@@H]3c4[nH]c5ccccc5c4CCN3C[C@H]2C[C@@H](OC(=O)c2cc(OC)c(OC)c(OC)c2)[C@@H]1OC` [DESERPIDINE]: the AC50 at Adenosine receptor A2a is more than 30 µM; in [1], more than 10 µM; in assay [2], more than 10 µM; in assay [3], more than 10 µM; at Vasopressin V2 receptor it was more than 30 µM; in assay [4], more than 10 µM. Moreover, the AC50 in assay [5] is more than 10 µM; in assay [6], more than 10 µM; in [7], 2.45 µM; at Melanocortin receptor 4, 8.6 µM; on Motilin receptor it was more than 30 µM; in assay [8], more than 30 µM. Also, the AC50 in [9] was 13.7 µM; in assay [10], more than 10 µM.

`Cc1cnc(Nc2ccc(OCCN3CCCC3)cc2)nc1Nc1cccc(S(=O)(=O)NC(C)(C)C)c1` [FEDRATINIB]: the AC50 is 3.75 µM on Adenosine receptor A2a; more than 10 µM in assay [1]; more than 10 µM in assay [2]; more than 10 µM in [3]; more than 30 µM on Vasopressin V2 receptor; more than 10 µM in assay [4]. In addition, the AC50 in [5] was more than 10 µM; in assay [7], 0.82 µM; on Melanocortin receptor 4, more than 30 µM; on Motilin receptor, 14 µM; in assay [8], more than 30 µM; in [9], 15.4 µM. Besides, the AC50 in assay [10] was more than 30 µM.

For the molecule `COc1nc(C)nc(Cl)c1N=C1NCCN1` [MOXONIDINE], the AC50 on Adenosine receptor A2a was more than 30 µM; in [11], 0.09 µM; in [1], more than 30 µM; in [3] it was more than 30 µM; at Vasopressin V2 receptor, more than 30 µM; at Cannabinoid receptor 1 [12] it was more than 30 µM. Also, the AC50 at Cannabinoid receptor 1 [13] is more than 30 µM; in [4], more than 30 µM; in assay [5] it was more than 30 µM; in assay [6], 6.5 µM; in assay [7], more than 30 µM; at Motilin receptor, more than 30 µM. For the same molecule, the AC50 in assay [8] and in [9] was more than 30 µM throughout.
